In patent publication EP4810040A2, “INHIBITORS OF APOL1 AND METHODS OF USING SAME” (priority 2020, dated 2022):
Like-named read-outs stand apart in the source and are kept apart here.

What was measured:
APOL1 G1 [1] = molecular target: T1, APOL1 G1 (Homo sapiens, UniProt O14791, I384M/S342G); test: MultiTox-Fluor Multiplex Cytotoxicity Assay, tet-inducible APOL1 G1 T-REx-HEK293 cells; assay type: cell-based; set-up: expressed in transfected cells; host or cells: T-REx HEK293, clone G1 DC3.25 (pAAVS1-Puro-APOL1 G1); conditions: Multi-Tox Assay; for IC50: IP50 = IC50 for cell proliferation, APOL1 variant not given; for IC90: read-out: Multi-Tox Assay IC90; for Emax: APOL1 variant not stated in Table 46, read-out: Multi-Tox Assay Max Activity (%)
T1 sequence (O14791 28-398 S342G/I384M): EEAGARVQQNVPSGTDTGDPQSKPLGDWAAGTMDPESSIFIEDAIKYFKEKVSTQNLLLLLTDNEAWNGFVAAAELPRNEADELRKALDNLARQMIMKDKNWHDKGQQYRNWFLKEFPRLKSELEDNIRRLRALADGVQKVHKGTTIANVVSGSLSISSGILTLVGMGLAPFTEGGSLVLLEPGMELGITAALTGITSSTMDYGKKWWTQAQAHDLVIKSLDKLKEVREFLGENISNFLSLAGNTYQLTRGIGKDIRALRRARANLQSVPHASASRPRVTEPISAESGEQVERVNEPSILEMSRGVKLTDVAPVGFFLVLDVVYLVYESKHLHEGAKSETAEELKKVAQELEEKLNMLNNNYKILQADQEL
Summary of the method: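 T-REx-HEK293 cells carrying tet-inducible APOL1 G1 induced with 50 ng/mL tet alongside compound (top 10 µM, 10-point 3-fold, duplicate) for 24 h at 37 °C. MultiTox-Fluor dead/live protease fluorescence ratio read after 30 min; normalized to no-tet (100% viability) and tet-treated (0%) controls, then curve-fitted.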

APOL1 G1 [2] = molecular target: T1, APOL1 G1; test: Trypanosoma brucei brucei Lysis Assay Using APOL1 Recombinant Protein (AlamarBlue viability readout); assay type: cell-based; conditions: IP50 = IC50 for cell proliferation; Trypanosome Assay
From the text: Trypanosoma brucei brucei is a blood stream parasite to which human, gorillas, and baboons are immune due to the presence of the APOL1 protein in their HDL particles. The protein is uptaken by the parasite via the TbHpHb receptor located in its flagellar pocket and is bonded by the Hpr protein contained in the HDL particles which triggers the receptor endocytosis by the parasite.
Following endocytosis, the formed vesicle containing the HDL particle matures from early to late endosome, and subsequently to lysosome. The concomitant pH change in the lumen of the vesicle triggers the insertion of the APOL1 protein into the membrane of the late endosome/lysosome and hereby triggers lysosomal membrane permeabilization and as a further downstream event, trypanosome lysis. Trypanosoma brucei brucei is sensitive to lysis by all three APOL1 variants (G0, G1, and G2).
The Trypanosoma brucei brucei lysis assay is a lysis assay of the parasite using recombinant APOL1 protein variant followed by a fluorescent detection method of viability by the addition of AlamarBlue reagent to the assay well, a general metabolic redox indicator (AlamarBlue assay).
Briefly, the AlamarBlue active compound, resazurin, a blue, water soluble, non-toxic and cell permeable molecule, which can be followed by absorbance, is reduced by various metabolic pathways into resorufin, a red compound which can be followed by either absorbance or fluorescence. The assay allows the calculation of the percent viability (percent of living Trypanosomes remaining in each well) at the end of a lysis relative to the untreated condition by interpolation of fluorescent values (FLU) on a standard curve with a known amount of seeded trypanosome/well.
Trypanosoma brucei brucei (ATCC, Cat. No. PRA-382) • o Lister 427 VSG 221 bloodstream form.
Assay Ready Plates (ARPs) ∘ ARPs comes in two formats: • […] final top concentration with a 2.5 fold dilution down. • 5 mM final top concentration with a 3 fold dilution down. • ▪ Both have a 10 point Dose response. • ▪ 0.1% DMSO final in the Black Assay Plate. • ▪ Compounds are diluted 1000 fold in the Black Assay Plate. • ▪ Each plate is designed for 14 compounds in duplicate. ∘ In the final Black Assay Plate: […]

[3] = APOL1 variant (G0/G1/G2) of the HEK293 cells not given
[4] = APOL1 variant (G0/G1/G2) not stated in Table 46

Molecule: 2'-ethyl-6'-(1-methyltriazol-4-yl)-2-(trifluoromethyl)spiro[4,5-dihydrothieno[2,3-c]pyran-7,4'-piperidine] [Compound 187]
- IC50 (APOL1 G1 [1]): < 50 nM
- IC90 (APOL1 G1 [1]; [3]): < 50 nM
- IC50 (APOL1 G1 [2]): 50 to 500 nM

Molecule: 2-chloro-2'-ethyl-6'-(1-methyltriazol-4-yl)spiro[4,5-dihydrothieno[2,3-c]pyran-7,4'-piperidine] [Compound 186]
- IC50 (APOL1 G1 [1]): < 50 nM
- IC90 (APOL1 G1 [1]; [3]): 50 to 500 nM
- IC50 (APOL1 G1 [2]): 50 to 500 nM

Molecule: C[C@H]1C[C@@]2(C[C@@H](C3(CO)CC3)N1)OCCc1cc(Cl)sc12 [Compound 380, [1-[(2'S,6'S,7S)-2-chloro-6'-methyl-spiro[4,5-dihydrothieno[2,3-c]pyran-7,4'-piperidine]-2'-yl]cyclopropyl]methanol]
- IC90 (APOL1 G1 [1]; [4]): 50 to 500 nM

Molecule: Cn1cc([C@@H]2C[C@]3(C[C@H](C4CC4)N2)OCCc2cc(Cl)sc23)nn1 [Compound 381, (2'R,6'S,7S)-2-chloro-2'-cyclopropyl-6'-(1-methyltriazol-4-yl)spiro[4,5-dihydrothieno[2,3-c]pyran-7,4'-piperidine]]
- IC90 (APOL1 G1 [1]; [4]): < 50 nM
- Emax (APOL1 G1 [1]): 100%

Molecule: Cn1cc([C@@H]2C[C@]3(C[C@H](C4CC4)N2)OC[C@@H](O)c2cc(Cl)sc23)nn1 [Compound 382, (2'R,4S,6'S,7S)-2-chloro-2'-cyclopropyl-6'-(1-methyltriazol-4-yl)spiro[4,5-dihydrothieno[2,3-c]pyran-7,4'-piperidine]-4-ol]
- IC90 (APOL1 G1 [1]; [4]): 50 to 500 nM
- Emax (APOL1 G1 [1]): 100%

Molecule: Cn1cc([C@@H]2C[C@]3(C[C@H](C4CC4)N2)OCCc2cc(C(F)(F)F)sc23)nn1 [Compound 383, (2'R,6'S,7S)-2'-cyclopropyl-6'-(1-methyltriazol-4-yl)-2-(trifluoromethyl)spiro[4,5-dihydrothieno[2,3-c]pyran-7,4'-piperidine]]
- IC90 (APOL1 G1 [1]; [4]): < 50 nM
- Emax (APOL1 G1 [1]): 100%

Molecule: C[C@H]1C[C@@]2(C[C@@H](c3cn(C)nn3)N1)OCC(C)(O)c1cc(C(F)(F)F)sc12 (stereo partly drawn) [Compound 384, (2'S,6'S,7S)-2',4-dimethyl-6'-(1-methyltriazol-4-yl)-2-(trifluoromethyl)spiro[5H-thieno[2,3-c]pyran-7,4'-piperidine]-4-ol]
- IC90 (APOL1 G1 [1]; [4]): < 50 nM
- Emax (APOL1 G1 [1]): 100%

Molecule: [2H]C1([2H])O[C@@]2(C[C@@H](c3cn(C)nn3)N[C@@H](C)C2)c2sc(Cl)cc2[C@]1([2H])O [Compound 385, (2S,4S,4'S,6S)-2'-chloro-4',5',5'-trideuterio-2-methyl-6-(1-methyltriazol-4-yl)spiro[piperidine-4,7'-thieno[2,3-c]pyran]-4'-ol]
- IC90 (APOL1 G1 [1]; [4]): < 50 nM
- Emax (APOL1 G1 [1]): 100%

Molecule: [2H][13C]([2H])([2H])n1cc([C@@H]2[13CH2][C@]3(C[C@H](C)N2)OC[C@@H](O)c2cc(C(F)(F)F)sc23)nn1 [Compound 386, (2S,4S,4'S,6S)-2-methyl-6-(1-(methyl-^13C-d3)-1H-1,2,3-triazol-4-yl)-2'-(trifluoromethyl)-4',5'-dihydrospiro[piperidine-4,7'-thieno[2,3-c]pyran]-5-^13C-4'-ol]
- IC90 (APOL1 G1 [1]; [4]): < 50 nM
- Emax (APOL1 G1 [1]): 100%

Molecule: Cn1cc([C@@H]2C[C@]3(C[C@H](c4ccccc4)N2)OC[C@@H](O)c2cc(Cl)sc23)nn1 [Compound 387, (2'S,4S,6'R,7S)-2-chloro-2'-(1-methyltriazol-4-yl)-6'-phenyl-spiro[4,5-dihydrothieno[2,3-c]pyran-7,4'-piperidine]-4-ol]
- IC90 (APOL1 G1 [1]; [4]): > 500 nM
- Emax (APOL1 G1 [1]): 94%

Molecule: Cn1cc(C2CC3(CC(C(F)F)N2)OCCc2cc(Cl)sc23)nn1 (stereo not drawn) [Compound 388, 2-chloro-2'-(difluoromethyl)-6'-(1-methyltriazol-4-yl)spiro[4,5-dihydrothieno[2,3-c]pyran-7,4'-piperidine]]
- IC90 (APOL1 G1 [1]; [4]): > 500 nM
- Emax (APOL1 G1 [1]): 90%

Molecule: Cn1cc(C2CC3(CC(C(F)F)N2)OCCc2cc(C(F)(F)F)sc23)nn1 (stereo not drawn) [Compound 389, 2'-(difluoromethyl)-6'-(1-methyltriazol-4-yl)-2-(trifluoromethyl)spiro[4,5-dihydrothieno[2,3-c]pyran-7,4'-piperidine]]
- IC90 (APOL1 G1 [1]; [4]): > 500 nM
- Emax (APOL1 G1 [1]): 99%

Molecule: C[C@H]1C[C@@]2(C[C@@H](c3cn(C)nn3)N1)OC[C@@H](O)c1sc(C(F)(F)F)cc12 [Compound 390, (2'S,4S,6'S,7R)-2'-methyl-6'-(1-methyltriazol-4-yl)-2-(trifluoromethyl)spiro[6,7-dihydrothieno[3,2-c]pyran-4,4'-piperidine]-7-ol]
- IC90 (APOL1 G1 [1]; [4]): < 50 nM
- Emax (APOL1 G1 [1]): 99%

Molecule: (2S)-2-chloro-2'-methyl-6'-(1-methylpyrazol-4-yl)spiro[4,5-dihydrothieno[2,3-c]pyran-7,4'-piperidine]-4-ol [Compound 175]
- IC50 (APOL1 G1 [1]): < 50 nM
- IC90 (APOL1 G1 [1]; [3]): < 50 nM
- IC50 (APOL1 G1 [2]): < 50 nM

Molecule: (2S,6S)-2-chloro-2'-cyclopropyl-6'-methyl-spiro[4,5-dihydrothieno[2,3-c]pyran-7,4'-piperidine] [Compound 211]
- IC50 (APOL1 G1 [1]): < 50 nM
- IC90 (APOL1 G1 [1]; [3]): 50 to 500 nM
- IC50 (APOL1 G1 [2]): 50 to 500 nM
